Laboratory results published in patent publication US20240294489A1 (Captor Therapeutics S.A., priority 2020, published 2024).
Read-outs that look alike come from different tables or passages of the source.

Columns and labels:
Type in all cases: cell-based
IM-9 = experiment: Cell viability, additional cell lines (CellTiter-Glo), IM-9; details: Homo sapiens, IM-9, 72 h; read-out: Absolute IC50
Procedure: (§1) Tumor cells are grown at 37° C. in a humidified atmosphere with 5% CO2 in RPMI 1640 medium, supplemented with 10% (v/v) fetal calf serum and 50 μg/ml gentamicin for up to 20 passages, and are passaged once or twice weekly.
(§2) Cells are harvested from exponential phase cultures, counted and plated in 96 well flat-bottom microtiter plates at a cell density depending on the cell line's growth rate (4,000-20,000 cells/well depending on the cell line's growth rate, up to 60,000 for hematological cancer cell lines) in RPMI 1640 medium supplemented with 10% (v/v) fetal calf serum and 50 μg/ml gentamicin (140 μl/well). Cultures are incubated at 37° C. and 5% CO2 in a humidified atmosphere. After 24 h, 10 μl of test compounds or control medium are added and left on the cells for another 72 h. Compounds are serially diluted in DMSO, transferred in cell culture medium, and added to the assay plates by using a Tecan Freedom EVO 200 robotic platform. The DMSO concentration is kept constant at 0.3% v/v across the assay plate. Viability of cells is quantified by the CellTiter-Glo® cell viability assay (Promega G8462). After incubation of cells, 100 μl of CellTiter-Glo® One Solution Assay reagent are added to each well. Plates are shaken for 2 minutes to induce cell lysis and incubated for 20 minutes prior to reading luminescence (LU) by using the EnVision® Xcite multilabel plate reader (Perkin Elmer). […]

Ikaros (IKZF1) = biological target: T1, Ikaros (IKZF1) (Homo sapiens, UniProt Q13422+Q96SW2); experiment: Ikaros degradation assay, H929 cell line; details: NCI-H929, H929 cells, 10 uM, 24 h, read-out: % of IKZF1 protein reduction
T1 construct: Ikaros degradation in the H929 cell line was investigated; endogenous in cells; host or cells: H929
Procedure: (§3) Cells were seeded on 6- or 12-well plates, and the compounds to be tested were added at the desired concentration range. […] After 24 h incubation (37° C., 5% CO2), cells were harvested, washed and cell lysates were prepared using RIPA lysis buffer. The amount of protein was determined via BCA assay, and the appropriate quantity was then loaded on the precast gel for the protein separation. After primary and secondary Ab staining, the membranes were washed and signals developed. The densitometry analysis was implemented to obtain the numeric values used later in the protein level evaluation process.

NCI-H929 = experiment: Cell viability, additional cell lines (CellTiter-Glo), NCI-H929; details: Homo sapiens, NCI-H929, 72 h; read-out: Absolute IC50
Procedure: as §1, §2

LP-1 = experiment: Cell viability, additional cell lines (CellTiter-Glo), LP-1; details: Homo sapiens, LP-1, 72 h; read-out: Absolute IC50
Procedure: as §1, §2

SNU-398 cells = experiment: Cell viability CTG assay, SNU-398; details: Homo sapiens; SNU-398, 72 h, 0.001-50 μM, FIG. 6C
Procedure: (§4) The effect of various compounds of the invention and various reference compounds on cell viability in various cell lines was investigated, using the Cell Viability—CTG Assay Protocol below. Hep3B, Kelly, H929, KG-1 and SNU-398 cells were maintained in respective cell medium (see Table 8, below). The cells were seeded on the 96-well or 384-white plates, and the compounds to be tested were added at the desired concentration range. Compounds are diluted in DMSO, and the DMSO concentration is kept constant at 0.25% v/v across the assay plate. After 72 h incubation (37° C., 5% CO2), CellTiter-Glo® Reagent (Promega/G7570) was added to the wells. Plates are shaken for 4 minutes and incubated for 8 minutes in the dark prior to reading luminescence (LU) by using the CLARIOstar Multimode Plate Reader. The signal is proportional to the amount of ATP, which is directly proportional to the number of cells present in the culture.
(§5) Luminescence (RLU) values were normalized to DMSO control. Dose response is assessed by non-linear regression and IC50 calculation with the average of technical duplicate of percentage inhibition. IC50 values are reported as absolute IC50 values, being the concentration of test compound at the intersection of the concentration-response curves with T/C=50%. For calculation of mean IC50 values the geometric mean is used.

PL-21 = experiment: Cell viability, additional cell lines (CellTiter-Glo), PL-21; details: PL-21, 72 h; read-out: Absolute IC50
Procedure: as §1, §2

Kasumi-1 = experiment: Cell viability, additional cell lines (CellTiter-Glo), Kasumi-1; details: Homo sapiens; Kasumi-1, 72 h; read-out: Absolute IC50
Procedure: as §1, §2

EOL-1 = experiment: Cell viability, additional cell lines (CellTiter-Glo), EOL-1; details: Homo sapiens, EOL1; EOL-1, 72 h; read-out: Absolute IC50
Procedure: as §1, §2

H929 cells = experiment: Cell viability CTG assay, H929; design: key to Geomean absolute IC50 by molecule, 72 H: Inactive represents IC50 > 50 μM; C represents 50 μM ≥ IC50 > 5 μM; details: H929, 72 h, 0.001-50 μM; for IC50: Homo sapiens, NCI-H929, numeric values, read-out: Geomean absolute IC50 by molecule, 72 H
Procedure: as §4, §5

TMD8 = experiment: Cell viability, additional cell lines (CellTiter-Glo), TMD8; details: Homo sapiens, TMD8, 72 h; read-out: Absolute IC50
Procedure: as §1, §2

U-266 = experiment: Cell viability, additional cell lines (CellTiter-Glo), U-266; details: Homo sapiens, U-266, 72 h; read-out: Absolute IC50
Procedure: as §1, §2

OCI-AML2 = experiment: Cell viability, additional cell lines (CellTiter-Glo), OCI-AML2; details: Homo sapiens, OCI-AML2, 72 h; read-out: Absolute IC50
Procedure: as §1, §2

NOMO-1 = experiment: Cell viability, additional cell lines (CellTiter-Glo), NOMO-1; details: Homo sapiens, NOMO-1, 72 h; read-out: Absolute IC50
Procedure: as §1, §2

U-937 = experiment: Cell viability, additional cell lines (CellTiter-Glo), U-937; details: Homo sapiens, U-937, 72 h; read-out: Absolute IC50
Procedure: as §1, §2

OPM-2 = experiment: Cell viability, additional cell lines (CellTiter-Glo), OPM-2; details: Homo sapiens, OPM-2, 72 h; read-out: Absolute IC50
Procedure: as §1, §2

HL-60 = experiment: Cell viability, additional cell lines (CellTiter-Glo), HL-60; details: Homo sapiens, HL-60, 72 h; read-out: Absolute IC50
Procedure: as §1, §2

SU-DHL-1 = experiment: Cell viability, additional cell lines (CellTiter-Glo), SU-DHL-1; details: Homo sapiens, SU-DHL-1, 72 h; read-out: Absolute IC50
Procedure: as §1, §2

Kelly cells [1] = experiment: Cell viability CTG assay, Kelly; details: 72 h, 0.001-50 μM, read-out: Kelly Geomean absolute IC50 by molecule, 72 H
Procedure: as §4, §5

GSPT1 = biological target: T2, GSPT1 (Homo sapiens, UniProt P15170+Q96SW2); experiment: GSPT1 degradation assay, Hep3B cell line; details: HEP3B cells, 24 h, read-out: % of GSPT1 protein reduction
T2 construct: GSPT1 degradation in the Hep3B cell line was investigated; endogenous in cells; host or cells: Hep3B
Procedure: (§6) Hep3B cells were maintained in EMEM medium, supplemented with penicillin/streptomycin and 10% Fetal Bovine Serum (FBS). Cells were seeded on 6- or 12-well plates, and the compounds to be tested were added at the desired concentration range. Final DMSO concentration was 0.25%. After 24 h incubation (37° C., 5% CO2), cells were harvested, washed and cell lysates were prepared using RIPA lysis buffer. The amount of protein was determined via BCA assay, and the appropriate quantity was then loaded on the precast gel for the protein separation. After primary and secondary Ab staining, the membranes were washed and signals developed. The densitometry analysis was implemented to obtain the numeric values used later in the protein level evaluation process. Densitometry values were normalized to the loading control and calculated as [%] of the DMSO control.

KG-1 cells = experiment: Cell viability CTG assay, KG-1; details: Homo sapiens; KG-1, 72 h, 0.001-50 μM; read-out: KG-1 Geomean absolute IC50 by molecule, 72 H
Procedure: as §4, §5

Hep3B cells [2] = experiment: Cell viability CTG assay, Hep3B; details: Homo sapiens, 72 h, 0.001-50 μM, read-out: Hep3B Geomean absolute IC50 by molecule, 72 H
Procedure: as §4, §5

SALL4 [3] = biological target: T3, SALL4 (Homo sapiens, UniProt Q96SW2+Q9UJQ4); experiment: SALL4 degradation assay, Kelly cell line (Western blot densitometry); details: Kelly cells, 100 nM, 24 h, average from n ≥ 2 experiments
T3 construct: SALL4 degradation in the Kelly cell line was investigated; endogenous in cells; host or cells: Kelly
Procedure: as §3

SALL4 [4] = biological target: T3, SALL4; experiment: SALL4 degradation in the Kelly cell line, time course; details: Kelly cells, 0.1 μM, 3, 6, 12, 24, 48 and 72 h, FIG. 2
Procedure: as §6, with “Kelly” for “Hep3B”, “RPMI-1640” for “EMEM”, “After” for “After 24 h”, “CO2) for a specified period of time,” for “CO2),”, “process.” for “process. Densitometry values were normalized to the loading control and calculated as [%] of the DMSO control.”

Hep3B cells [5] = experiment: Cell survival clonogenic assay, Hep3B; details: 0.1-10 μM, crystal violet staining after 9-10 days
Procedure: (§7) To determine the ability of a single cell to form a colony (defined as a cluster of at least 50 cells), Kelly and Hep3B cells were maintained in RPM11640 (Kelly) or EMEM (Hep3B) medium, supplemented with penicillin/streptomycin and 10% FBS. The cells were counted and seeded on the 6-well plates, at the density of 1×10^3 cells per well, the compounds to be tested were added at the desired concentration range, and the cells were cultured at 37° C./5% CO2. After colony formation (9-10 days), the cells were washed and treated with 6.0% glutaraldehyde and 0.5% crystal violet mix for 30 min., followed by rinsing with water and drying at room temperature (RT).

Kelly cells [6] = experiment: Cell survival clonogenic assay, Kelly; details: 0.1-10 μM, crystal violet staining after 9-10 days
Procedure: as §7

T1 sequence (Q13422 whole entry): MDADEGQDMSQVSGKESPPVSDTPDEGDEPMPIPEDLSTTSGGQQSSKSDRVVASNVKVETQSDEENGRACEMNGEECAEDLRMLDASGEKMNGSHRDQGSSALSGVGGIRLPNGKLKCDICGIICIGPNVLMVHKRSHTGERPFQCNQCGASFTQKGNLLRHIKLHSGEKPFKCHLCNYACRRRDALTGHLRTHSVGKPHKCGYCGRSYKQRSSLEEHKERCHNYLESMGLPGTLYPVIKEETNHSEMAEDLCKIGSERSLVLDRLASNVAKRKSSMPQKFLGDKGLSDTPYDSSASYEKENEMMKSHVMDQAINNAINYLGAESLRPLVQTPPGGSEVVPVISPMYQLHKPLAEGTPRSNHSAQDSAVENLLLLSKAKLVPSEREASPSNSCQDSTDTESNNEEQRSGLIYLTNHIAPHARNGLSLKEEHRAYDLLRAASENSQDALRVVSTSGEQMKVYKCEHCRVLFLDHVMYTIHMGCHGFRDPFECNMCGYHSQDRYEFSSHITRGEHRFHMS
T1 sequence (Q96SW2 whole entry): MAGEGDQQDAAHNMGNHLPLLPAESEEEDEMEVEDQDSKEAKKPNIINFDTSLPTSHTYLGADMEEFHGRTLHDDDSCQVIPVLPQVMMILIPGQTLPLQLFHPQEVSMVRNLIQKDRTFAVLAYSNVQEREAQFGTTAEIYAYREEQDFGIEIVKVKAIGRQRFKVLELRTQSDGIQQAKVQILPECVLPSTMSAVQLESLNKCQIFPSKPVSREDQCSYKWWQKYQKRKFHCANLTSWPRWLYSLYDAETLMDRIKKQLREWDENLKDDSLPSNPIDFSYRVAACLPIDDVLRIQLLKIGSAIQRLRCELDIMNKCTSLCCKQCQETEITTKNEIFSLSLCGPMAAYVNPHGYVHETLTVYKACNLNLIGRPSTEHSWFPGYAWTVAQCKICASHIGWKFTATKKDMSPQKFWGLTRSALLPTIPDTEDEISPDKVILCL
T1 sequence (Q16531 whole entry partner): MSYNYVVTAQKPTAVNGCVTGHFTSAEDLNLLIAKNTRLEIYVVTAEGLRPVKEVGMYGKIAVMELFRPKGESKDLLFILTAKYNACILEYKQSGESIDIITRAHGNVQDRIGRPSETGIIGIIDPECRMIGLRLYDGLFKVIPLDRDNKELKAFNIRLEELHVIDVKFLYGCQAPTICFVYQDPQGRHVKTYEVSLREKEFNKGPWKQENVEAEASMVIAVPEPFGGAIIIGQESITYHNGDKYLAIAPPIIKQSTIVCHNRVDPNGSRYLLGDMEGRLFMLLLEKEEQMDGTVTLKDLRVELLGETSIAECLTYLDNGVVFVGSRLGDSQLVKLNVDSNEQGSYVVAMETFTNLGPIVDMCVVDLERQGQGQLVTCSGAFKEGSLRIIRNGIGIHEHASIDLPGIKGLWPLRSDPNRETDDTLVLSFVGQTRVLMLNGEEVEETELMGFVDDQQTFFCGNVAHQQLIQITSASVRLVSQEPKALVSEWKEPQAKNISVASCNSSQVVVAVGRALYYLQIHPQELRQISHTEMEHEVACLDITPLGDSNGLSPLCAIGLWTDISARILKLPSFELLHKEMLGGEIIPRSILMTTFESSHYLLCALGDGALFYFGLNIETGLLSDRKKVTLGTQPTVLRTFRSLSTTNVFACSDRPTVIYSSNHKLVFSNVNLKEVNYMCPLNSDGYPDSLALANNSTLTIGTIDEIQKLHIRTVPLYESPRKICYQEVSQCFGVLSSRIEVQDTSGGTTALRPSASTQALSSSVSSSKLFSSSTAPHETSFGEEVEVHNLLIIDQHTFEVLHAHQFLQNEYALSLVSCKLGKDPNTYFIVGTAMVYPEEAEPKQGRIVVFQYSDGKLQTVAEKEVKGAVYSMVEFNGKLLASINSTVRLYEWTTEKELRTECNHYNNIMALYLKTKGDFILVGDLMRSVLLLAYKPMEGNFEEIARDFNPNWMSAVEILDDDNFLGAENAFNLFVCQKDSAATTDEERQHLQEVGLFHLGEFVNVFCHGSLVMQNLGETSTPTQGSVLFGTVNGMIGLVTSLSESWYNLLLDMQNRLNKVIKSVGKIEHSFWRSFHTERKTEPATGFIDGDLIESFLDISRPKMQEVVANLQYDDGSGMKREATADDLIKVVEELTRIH
T3 sequence (Q9UJQ4 whole entry): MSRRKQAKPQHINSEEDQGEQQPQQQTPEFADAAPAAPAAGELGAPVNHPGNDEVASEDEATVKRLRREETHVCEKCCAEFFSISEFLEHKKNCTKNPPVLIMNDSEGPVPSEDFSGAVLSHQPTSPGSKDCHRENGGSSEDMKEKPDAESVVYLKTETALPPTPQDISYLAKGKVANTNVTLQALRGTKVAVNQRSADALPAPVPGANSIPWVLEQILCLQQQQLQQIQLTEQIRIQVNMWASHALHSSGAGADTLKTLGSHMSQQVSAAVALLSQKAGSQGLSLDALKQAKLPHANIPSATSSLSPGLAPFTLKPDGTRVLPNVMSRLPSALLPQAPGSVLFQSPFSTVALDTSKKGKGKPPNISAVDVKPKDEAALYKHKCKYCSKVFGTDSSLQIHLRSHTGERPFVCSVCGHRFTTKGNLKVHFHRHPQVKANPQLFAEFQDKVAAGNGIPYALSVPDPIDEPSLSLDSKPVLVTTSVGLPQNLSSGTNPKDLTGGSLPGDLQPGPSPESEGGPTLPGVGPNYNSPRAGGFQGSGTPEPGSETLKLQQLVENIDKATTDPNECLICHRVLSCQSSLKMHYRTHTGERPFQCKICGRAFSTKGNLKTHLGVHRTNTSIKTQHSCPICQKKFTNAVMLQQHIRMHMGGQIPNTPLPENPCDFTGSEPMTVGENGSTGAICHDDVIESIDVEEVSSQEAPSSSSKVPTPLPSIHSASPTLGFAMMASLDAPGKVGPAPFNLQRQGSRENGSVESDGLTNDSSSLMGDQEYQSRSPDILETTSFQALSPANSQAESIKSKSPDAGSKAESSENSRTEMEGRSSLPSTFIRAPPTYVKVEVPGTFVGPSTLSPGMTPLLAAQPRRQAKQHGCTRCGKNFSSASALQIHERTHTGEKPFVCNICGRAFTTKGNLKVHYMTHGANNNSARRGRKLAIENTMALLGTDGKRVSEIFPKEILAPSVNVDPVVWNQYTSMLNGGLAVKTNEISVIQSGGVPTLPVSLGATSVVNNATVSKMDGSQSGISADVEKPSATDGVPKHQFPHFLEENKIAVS
T3 sequence (Q96SW2 whole entry): as the sequence (Q96SW2 whole entry) above
T3 sequence (Q16531 whole entry partner): as the sequence (Q16531 whole entry partner) above
T2 sequence (P15170 whole entry): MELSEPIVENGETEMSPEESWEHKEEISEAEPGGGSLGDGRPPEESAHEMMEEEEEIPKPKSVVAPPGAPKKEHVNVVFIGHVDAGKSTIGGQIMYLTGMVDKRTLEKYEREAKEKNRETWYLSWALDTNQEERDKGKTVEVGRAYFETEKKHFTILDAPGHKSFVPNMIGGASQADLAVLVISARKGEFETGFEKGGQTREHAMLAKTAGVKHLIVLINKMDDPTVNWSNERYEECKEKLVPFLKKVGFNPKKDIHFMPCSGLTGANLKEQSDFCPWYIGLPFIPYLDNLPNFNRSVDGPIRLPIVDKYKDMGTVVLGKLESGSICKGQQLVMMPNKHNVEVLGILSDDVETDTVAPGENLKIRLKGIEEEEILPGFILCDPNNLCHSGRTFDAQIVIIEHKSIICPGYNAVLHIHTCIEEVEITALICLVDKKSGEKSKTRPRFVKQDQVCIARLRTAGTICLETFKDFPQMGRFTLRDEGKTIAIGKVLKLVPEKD
T2 sequence (Q96SW2 whole entry): as the sequence (Q96SW2 whole entry) above
T2 sequence (Q16531 whole entry partner): as the sequence (Q16531 whole entry partner) above

O=C1CCC(N2Cc3cc(CNC(=O)C(F)(F)c4ccc(Cl)cc4)ccc3C2=O)C(=O)N1 (stereo not shown) [CC-90009, reference compound]
IC50 (IM-9): 85 nM | inhibition at 10 µM (Ikaros (IKZF1); numeric values): 33% | IC50 (NCI-H929): 399 nM | IC50 (LP-1): 28 nM | IC50 (SNU-398 cells): > 9900 nM | IC50 (PL-21): 10 nM | IC50 (Kasumi-1): 35 nM | IC50 (EOL-1): 2 nM | IC50 (H929 cells): 189 nM | IC50 (TMD8): 264 nM | IC50 (U-266): 56 nM | IC50 (OCI-AML2): 18 nM | IC50 (NOMO-1): 40 nM | IC50 (U-937): 78 nM | IC50 (OPM-2): 74 nM | IC50 (HL-60): 3 nM | IC50 (SU-DHL-1): 153 nM

NCc1cc2c(cc1F)C(=O)N(C1CCC(=O)NC1=O)C2 (stereo not shown) [Compound 3, 3-[5-(aminomethyl)-6-fluoro-1-oxo-2,3-dihydro-1H-isoindol-2-yl]piperidine-2,6-dione]
inhibition at 10 µM (Ikaros (IKZF1)): 0 to 24% | IC50 (Kelly cells [1]): ≤ 100 nM | IC50 (SNU-398 cells): 82 nM | inhibition at 10 µM (GSPT1; 10 uM): 80 to 100% | Geomean absolute IC50 by molecule, 72 H (H929 cells): Inactive | IC50 (KG-1 cells): ≤ 100 nM | IC50 (Hep3B cells [2]): ≤ 100 nM

Nc1c(O)ccc2c1C(=O)N(C1CCC(=O)NC1=O)C2=O (stereo not shown) [Compound 44, 4-amino-2-(2,6-dioxopiperidin-3-yl)-5-hydroxyisoindoline-1,3-dione]
inhibition at 10 µM (Ikaros (IKZF1)): 0 to 24% | inhibition at 1 µM (GSPT1; 1 uM): 50 to 79% | % of SALL4 protein reduction (SALL4 [3]): >80% | SALL4 degradation time course (SALL4 [4]): more rapidly and effectively than lenalidomide

Nc1cccc2c1CN(C1CCC(=O)NC1=O)C2=O (stereo not shown) [Lenalidomide, lenalidomide, reference compound]
survival of the cells (colony formation) (Hep3B cells [5]): no activity | IC50 (H929 cells): 433 nM | survival of the cells (colony formation) (Kelly cells [6]): no activity
